Measurements as given in PMC7726444 (Frontiers in Pharmacology, 2020).

Target: T1, MAO-A (Homo sapiens, UniProt P21397)
T1 construct: purchased BioVision, Inc, Milpitas, CA
T1 sequence (P21397 1-527): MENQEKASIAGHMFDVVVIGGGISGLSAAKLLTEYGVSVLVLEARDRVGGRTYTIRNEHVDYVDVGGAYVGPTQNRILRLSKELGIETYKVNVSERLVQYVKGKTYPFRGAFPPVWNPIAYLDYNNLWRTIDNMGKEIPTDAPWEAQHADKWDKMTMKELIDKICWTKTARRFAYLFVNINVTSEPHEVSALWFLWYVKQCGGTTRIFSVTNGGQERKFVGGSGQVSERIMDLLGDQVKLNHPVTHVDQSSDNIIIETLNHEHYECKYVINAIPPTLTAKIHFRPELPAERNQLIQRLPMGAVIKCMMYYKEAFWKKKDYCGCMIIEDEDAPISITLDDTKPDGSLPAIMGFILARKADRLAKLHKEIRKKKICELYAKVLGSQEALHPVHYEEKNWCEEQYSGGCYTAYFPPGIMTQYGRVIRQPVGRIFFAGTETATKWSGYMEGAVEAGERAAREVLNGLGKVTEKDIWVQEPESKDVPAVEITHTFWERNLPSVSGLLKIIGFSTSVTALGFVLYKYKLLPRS
Assay: MAO-A enzymatic activity assay (MAO-A Inhibitor Screening Kit, fluorimetric detection of H2O2)
Assay type: biochemical
Details: 25°C, 15 min kinetic read; mean (95% confidence interval), three experiments
Procedure: The experiments were conducted following the manufacturer’s (BioVision, Inc, Milpitas, CA) instructions and were based on the fluorimetric detection of H2O2, a byproduct of the enzymatic activity of MAO-A, by measuring the fluorescence (Excitation/Emission at 535/587 nm) kinetically at 25°C for 15 min using a Tecan Spark plate reader (Tecan Group Ltd, Männedorf, Switzerland).
Relative inhibition of MAO-A was calculated as a percentage using the following Eq. 2: %Relative inhibition=((Slope of EC−Slope of S)/Slope of EC)×100 (2)
The slopes for all samples, either containing Enzyme Control (EC) or test substance (S), were calculated by dividing the net change in relative fluorescence units (ΔRFU; RFU2–RFU1) by the time interval (Δt; t2 –t1).

IC50: 89.4 µM
SMILES: COc1ccc2[nH]c([S+]([O-])Cc3ncc(C)c(OC)c3C)nc2c1 (stereo not shown) [Omeprazole]
